Converted amounts (≈) assume the structure as drawn. Where two headings read alike, the source gives them in different places.
Assays:
[1] = Cytotoxicity (MTT) assay against HFF-1 cells; type: cell-based; details: human, no irradiation, read-out: 50% cytotoxicity concentration (CC50) against HFF-1 cells
Description: The cytotoxicity of TPA-1, TPA-0, and TPA-NC-1 against HFF-1 cells was evaluated using the 3-(4,5-dimethylthiazol-2-yl)-2,5-diphenyltetrazolium bromide (MTT) assay kit from ThermoFisher Scientific. In general, HFF-1 cells (MEM, 10% FBS, and 1% penicillin-streptomycin) were seeded in a 96-well plate with a density of 3000 cells/well overnight at 37 °C with 5% CO2. Then, the cells were treated with different concentrations of compounds for 24 h. MTT (10 μL, 5 mg/mL) was added to the medium, and the cells were further incubated for 3 h. The medium was then replaced by DMSO (100 μL). After gently shaking the plate for 30 s, the optical density of the solutions at 570 nm was measured by a BMG Labtech CLARIOstar microplate reader. The cell viability was calculated as (ODcompound – ODDMSO)/(ODmedium - ODDMSO) × 100% where ODcompound, ODmedium, and ODDMSO are the optical densities of the treated cell, nontreated cells, and DMSO at 570 nm, respectively. The experiment was conducted in triplicate. The CC50 values were calculated using GraphPad Prism 8.

[2] = Log P, 1-octanol/water partition; type: physicochemical; details: 1-octanol/water (1:1)
Description: The log P values of TPA compounds were obtained according to previously reported methods.[66] 1-octanol was first presaturated with water. Equal volume and concentration of TPA-NC-1, TPA-0, and TPA-1 were added to a 1-octanol/water (1:1) mixture and vortexed for 1 min. The mixture was then centrifuged for 5 min at 13,500 rpm. After that, the absorptions of the compound in the 1-octanol and water phases were measured. The concentrations of the compound in both phases were calculated by using the absorption calibration curve of the corresponding compound. Log P = log (concentration of the compound in 1-octanol/concentration of the compound in water).

[3] = Hemolysis of human erythrocytes; type: cell-based; details: 200 μM compound, 1 h, 37 °C
Description: (§1) The human erythrocyte concentrate was prepared according to the kit manual from the Biomaterial Hemolytic Assay Kit (Hemoscan). After the human erythrocytes had been washed and diluted with manufacture buffer, 100 μL of erythrocytes (10%) were added into 100 μL of various concentrations of compounds in PBS. 1% of Triton X (1%) was the positive control, while PBS was the negative control. The erythrocytes were then gently mixed with the TPA compounds and further incubated for an hour at 37 °C. After that, the erythrocytes were centrifuged (1000 rpm, 5 min), and 20 μL of supernatant was added to 180 μL of PBS in a 96-well plate. The optical density at 380, 415, and 450 nm was measured by a plate reader. The final OD value of the compounds was calculated as (2 × OD415) – (OD450 + OD380) where OD380, OD415, and OD450 are the optical density of the solution at 380, 415, and 450 nm, respectively. The hemolysis rates of the compounds were calculated as (ODcompound – ODPBS)/(ODTritonX – ODPBS) × 100% where ODcompound, ODPBS, and ODTritonX are the final OD values of the erythrocytes mixed with TPA compounds, PBS, and 1% Triton X, respectively. The experiment was performed in triplicate.

human erythrocytes = assay: Hemolysis of human erythrocytes; type: cell-based
Description: as §1

S. aureus = assay: Resistance development assay on S. aureus; type: cell-based, Staphylococcus aureus
Description: The MICs for TPA-1 and norfloxacin against S. aureus were first determined by the above-mentioned method. The wells with 0.5 × MIC of compounds were transferred to 1 mL fresh MHB and incubated under darkness for 3–4 h at 37 °C. The bacteria were then used to conduct a MIC assay again. The experiments were repeated for 20 days. The fold changes in the MIC values of the compounds were recorded. The experiments were performed in duplicate.

[4] = test system: P. aeruginosa (ATCC 27853); assay: MIC assay (broth microdilution, CLSI), without light; type: cell-based; details: Pseudomonas aeruginosa, ATCC27853, light or radiation study; without light irradiation; read-out: MIC against P. aeruginosa (ATCC 27853)
Description: (§2) The MIC assays of TPA-1 were conducted according to the broth microdilution methods described in the Clinical and Laboratory Standards Institute (CLSI) standard. A single colony of S. aureus (ATCC 29213), methicillin-resistant S. aureus (BAA 41), or P. aeruginosa (ATCC 27853) on an LB agar plate was picked and suspended in Mueller–Hinton Broth (MHB). The bacterial culture was grown overnight at 37 °C. The next day, the bacteria culture was diluted 100 times in fresh MHB and grown to the mid log phase. Bacteria in the mid log phase were further diluted to 5 × 10^6 CFU/mL in cation-adjusted MHB (S. aureus) or MHB (P. aeruginosa). Ten μL of the diluted bacteria were added to a 96-well plate containing 90 μL of serial diluted TPA-1 in the corresponding medium. The plate was incubated overnight at 37 °C. The MICs of the TPA compounds were the concentrations at which no apparent bacteria were observed by the naked eye. Different concentrations of LTA were also added to examine the change in MIC values of TPA-1 against S. aureus. The experiments were conducted in triplicate.

S. aureus (ATCC 29213) = assay: as above; type: cell-based; details: Staphylococcus aureus, ATCC29213, light or radiation study, read-out: MIC against S. aureus (ATCC 29213)
Description: as §2

[5] = test system: methicillin-resistant S. aureus (BAA 41); assay: as above; type: cell-based; details: Staphylococcus aureus, BAA41, light or radiation study, read-out: MIC against methicillin-resistant S. aureus (BAA 41)
Description: as §2

Structure (SMILES) | CC50 at 24 h [1] | logP [2] | hemolysis at 1 h, 200 µM [3] | HC50 (human erythrocytes) | other results
CC[n+]1c(/C=C/c2ccc(-c3ccc(N(c4ccc(OCCC[N+](C)(C)C)cc4)c4ccc(OCCC[N+](C)(C)C)cc4)cc3)s2)sc2ccccc21.[Br-].[Br-].[Br-] [TPA-0] | 120 ± 20 µM | -1.7 | < 3% | > 200 µM | 
CCn1cc(C(=O)O)c(=O)c2cc(F)c(N3CCNCC3)cc21 [norfloxacin, reference compound] |  |  |  |  | increase of MIC against S. aureus after treatment for 20 days (S. aureus; 20 days of passages at 0.5 × MIC): 1024 fold; MIC (S. aureus; Staphylococcus aureus, read-out: initial MIC against S. aureus in resistance development assay): 0.5 µM (≈ 0.16 µg/mL)
C[C@@H](O)[C@H]1C(=O)N2C(C(=O)O)=C(S[C@@H]3CN[C@H](C(=O)N(C)C)C3)[C@H](C)[C@H]12 [Meropenem, reference compound] |  |  |  |  | MIC [4]: 2.5 µM (≈ 0.959 µg/mL); MIC (S. aureus (ATCC 29213); without light irradiation): 0.312 µM (≈ 0.12 µg/mL)
CN[C@H](CC(C)C)C(=O)N[C@H]1C(=O)N[C@@H](CC(N)=O)C(=O)N[C@H]2C(=O)N[C@H]3C(=O)N[C@H](C(=O)N[C@H](C(=O)O)c4cc(O)cc(O)c4-c4cc3ccc4O)[C@H](O)c3ccc(c(Cl)c3)Oc3cc2cc(c3O[C@@H]2O[C@H](CO)[C@@H](O)[C@H](O)[C@H]2O[C@H]2C[C@](C)(N)[C@H](O)[C@H](C)O2)Oc2ccc(cc2Cl)[C@H]1O [Vancomycin, reference compound] |  |  |  |  | MIC (S. aureus (ATCC 29213)): 0.625 µM (≈ 0.906 µg/mL); MIC [5]: 0.625 µM (≈ 0.906 µg/mL)
CC[n+]1c(/C=C/c2ccc(-c3ccc(N(c4ccc(OC)cc4)c4ccc(OC)cc4)cc3)s2)sc2ccccc21.[Br-] [TPA-NC-1, reference compound] | 7.8 ± 0.7 µM | 1.1 | > 60% | < 200 µM | 

— article PMC12035805, “A Water-Soluble Aggregation-Induced Emission Photosensitizer with Intrinsic Antibacterial Activity as an Antiplanktonic and Antibiofilm Therapeutic Agent” (Journal of Medicinal Chemistry, 2025)
